{
  "source": "patent US20240150362A1",
  "about": "“Substituted Pyrrolotriazines” (Molecure S.A., priority 2022, published 2024)",
  "note": "Where a name gives a salt, the structure may show the parent alone.",
  "data": [
    {"molecular_target": "T1, full-length USP7 (Homo sapiens, UniProt Q93009)", "T1 construct": "A 45 μl reaction volume containing full-length USP7 (0.5-1.0 nM)", "T1 sequence (Q93009 whole entry)": "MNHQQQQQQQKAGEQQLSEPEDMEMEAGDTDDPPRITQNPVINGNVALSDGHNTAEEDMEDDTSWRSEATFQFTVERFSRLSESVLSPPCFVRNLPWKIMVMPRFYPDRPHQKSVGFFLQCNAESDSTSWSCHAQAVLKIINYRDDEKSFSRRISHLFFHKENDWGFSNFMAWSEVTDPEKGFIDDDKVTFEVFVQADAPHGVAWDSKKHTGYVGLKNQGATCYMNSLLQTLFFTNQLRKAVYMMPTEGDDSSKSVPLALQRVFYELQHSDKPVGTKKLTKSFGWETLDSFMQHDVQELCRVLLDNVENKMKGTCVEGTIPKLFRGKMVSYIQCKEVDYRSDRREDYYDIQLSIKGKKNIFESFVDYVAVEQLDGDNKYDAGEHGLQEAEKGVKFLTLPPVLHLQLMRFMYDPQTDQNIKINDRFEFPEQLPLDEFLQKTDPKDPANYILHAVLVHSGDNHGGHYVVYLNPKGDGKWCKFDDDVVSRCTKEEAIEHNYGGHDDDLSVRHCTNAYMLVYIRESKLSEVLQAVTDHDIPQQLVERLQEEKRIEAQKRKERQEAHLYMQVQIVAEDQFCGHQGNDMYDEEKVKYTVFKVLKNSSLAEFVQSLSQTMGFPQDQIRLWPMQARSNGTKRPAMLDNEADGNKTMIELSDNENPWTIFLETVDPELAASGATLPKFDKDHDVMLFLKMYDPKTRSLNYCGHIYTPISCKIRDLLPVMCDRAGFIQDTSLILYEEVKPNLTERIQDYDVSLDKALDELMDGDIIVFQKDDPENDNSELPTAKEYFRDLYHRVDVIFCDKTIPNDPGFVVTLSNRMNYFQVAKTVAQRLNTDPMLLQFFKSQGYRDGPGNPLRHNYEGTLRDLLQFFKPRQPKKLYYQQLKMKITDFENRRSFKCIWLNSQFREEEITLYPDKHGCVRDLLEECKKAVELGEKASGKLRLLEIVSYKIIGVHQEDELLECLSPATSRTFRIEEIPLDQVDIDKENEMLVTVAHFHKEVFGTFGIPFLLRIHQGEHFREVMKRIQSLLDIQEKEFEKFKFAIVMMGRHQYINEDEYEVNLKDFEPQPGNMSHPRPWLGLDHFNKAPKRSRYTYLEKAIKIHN", "assay": "Enzymatic assay to determine IC50 of USP7 inhibitors (Ubiquitin-Rhodamine 110 cleavage)", "format": "biochemical", "settings": "full-length USP7 0.5-1.0 nM, 0.5 μM Ubiquitin-Rhodamine 110, 30-60 min at 25° C.", "experimental": "Enzymatic Assay to Determine IC50 of USP7 Inhibitors\nThe IC50 is the concentration of an inhibitor where the measured enzyme activity is reduced by half. In the case of USP7 deubiquitinase, the IC50 of an USP7 inhibitor is the molar concentration of the compound that inhibits 50% of the activity observed in a USP7-mediated-ubiquitin-rhodamine cleavage assay. For the inhibitors disclosed herein, their potency was measured using the following method.\nA 45 μl reaction volume containing full-length USP7 (0.5-1.0 nM) in 50 mM HEPES pH 7.5, 150 mM NaCl, 2 mM DTT, 1 mg/ml BSA and 0.05% Tween20 was assembled in wells of 96 well half area black flat bottom plates. Test compounds were first dissolved to 30 mM stocks in DMSO and subsequently introduced to enzyme 15 min after USP7 incubation with DTT at room temperature. The enzymatic reaction was started by adding 0.5 μM Ubiquitin-Rhodamine 110 (final concentration) and allowed to proceed for 30-60 min at 25° C., 250 RPM shaking before Rhodamine fluorescence (485 nm excitation/535 nm emission) was measured using Tecan Spark M10 plate reader. The IC50 values were determined by data fitting to variable slope model four-parameter dose-response curve using GraphPad 7.05.", "units": {"IC50": "nM"}, "values": [
      {"smiles": "Cc1cc(Cl)cc(-c2ncnn3cc(CN4C(=O)C5C(C4=O)C5(C)C)cc23)c1O[C@H]1CCCNC1", "note": "(stereo partly drawn) [Example 1, 3-((4-(5-chloro-3-methyl-2-(((S)-piperidin-3-yl)oxy)phenyl)pyrrolo[2,1-f][1,2,4]triazin-6-yl)methyl)-6,6-dimethyl-3-azabicyclo[3.1.0]hexane-2,4-dione hydrochloride]", "IC50": "< 500"},
      {"smiles": "Cc1cc(Cl)cc(-c2ncnn3cc(CN4C(=O)C5C(C4=O)C5(C)C)cc23)c1C[C@@H]1CNCCO1", "note": "(stereo partly drawn) [Example 2, 3-((4-(5-chloro-3-methyl-2-(((R)-morpholin-2-yl)methyl)phenyl)pyrrolo[2,1-f][1,2,4]triazin-6-yl)methyl)-6,6-dimethyl-3-azabicyclo[3.1.0]hexane-2,4-dione hydrochloride]", "IC50": "< 500"},
      {"smiles": "Cc1cc(Cl)cc(-c2ncnn3cc(CN4C(=O)C5C(C4=O)C5(C)C)cc23)c1CN1CCNC[C@@H]1C", "note": "(stereo partly drawn) [Example 6, 3-((4-(5-chloro-3-methyl-2-(((S)-2-methylpiperazin-1-yl)methyl)phenyl)pyrrolo[2,1-f][1,2,4]triazin-6-yl)methyl)-6,6-dimethyl-3-azabicyclo[3.1.0]hexane-2,4-dione hydrochloride]", "IC50": "< 500"},
      {"smiles": "CC1(C)C2C(=O)N(Cc3cc4c(-c5cc(Cl)cc6ccn(CC7(F)CCNCC7)c56)ncnn4c3)C(=O)C21", "note": "(stereo not shown) [Example 10, 3-((4-(5-chloro-1-((4-fluoropiperidin-4-yl)methyl)-1H-indol-7-yl)pyrrolo[2,1-f][1,2,4]triazin-6-yl)methyl)-6,6-dimethyl-3-azabicyclo[3.1.0]hexane-2,4-dione hydrochloride]", "IC50": "< 500"},
      {"smiles": "Cc1cc(Cl)cc(-c2ncnn3cc(CN4C(=O)C5C(C4=O)C5(C)C)cc23)c1CN1[C@@H](C)CNC[C@@H]1C", "note": "(stereo partly drawn) [Example 11, 3-((4-(5-chloro-2-(((2S,6S)-2,6-dimethylpiperazin-1-yl)methyl)-3-methylphenyl)pyrrolo[2,1-f][1,2,4]triazin-6-yl)methyl)-6,6-dimethyl-3-azabicyclo[3.1.0]hexane-2,4-dione dihydrochloride]", "IC50": "< 500"},
      {"smiles": "Cc1cc(Cl)cc(-c2ncnn3cc(CN4C(=O)C5C(C4=O)C5(C)C)c(C)c23)c1C[C@@H]1CNCCO1", "note": "(stereo partly drawn) [Example 13, 3-((4-(5-chloro-3-methyl-2-(((R)-morpholin-2-yl)methyl)phenyl)-5-methylpyrrolo[2,1-f][1,2,4]triazin-6-yl)methyl)-6,6-dimethyl-3-azabicyclo[3.1.0]hexane-2,4-dione hydrochloride]", "IC50": "500 to 1000"},
      {"smiles": "Cc1cc(Cl)cc(-c2ncnn3cc(CN4C(=O)C5C(C4=O)C5(C)C)cc23)c1O[C@@H]1CNC[C@@H]1F", "note": "(stereo partly drawn) [Example 14, 3-((4-(5-chloro-2-(((3R,4S)-4-fluoropyrrolidin-3-yl)oxy)-3-methylphenyl)pyrrolo[2,1-f][1,2,4]triazin-6-yl)methyl)-6,6-dimethyl-3-azabicyclo[3.1.0]hexane-2,4-dione hydrochloride]", "IC50": "< 500"},
      {"smiles": "CC1(C)C2C(=O)N(Cc3cc4c(-c5cc(C(F)(F)F)cc6ccn(CC7(F)CCNCC7)c56)ncnn4c3)C(=O)C21", "note": "(stereo not shown) [Example 22, 3-((4-(1-((4-fluoropiperidin-4-yl)methyl)-5-(trifluoromethyl)-1H-indol-7-yl)pyrrolo[2,1-f][1,2,4]triazin-6-yl)methyl)-6,6-dimethyl-3-azabicyclo[3.1.0]hexane-2,4-dione hydrochloride]", "IC50": "< 500"},
      {"smiles": "CC1(C)C2C(=O)N(Cc3cc4c(-c5cc(Cl)cc6ccn(CC7CNCCO7)c56)ncnn4c3)C(=O)C21", "note": "(stereo not shown) [Example 24, 3-((4-(5-chloro-1-(morpholin-2-ylmethyl)-1H-indol-7-yl)pyrrolo[2,1-f][1,2,4]triazin-6-yl)methyl)-6,6-dimethyl-3-azabicyclo[3.1.0]hexane-2,4-dione dihydrochloride]", "IC50": "< 500"},
      {"smiles": "CC1(C)C2C(=O)N(Cc3cc4c(-c5cc(Cl)cc6ccn(CC7(C#N)CCNCC7)c56)ncnn4c3)C(=O)C21", "note": "(stereo not shown) [Example 25, 4-((5-chloro-7-(6-((6,6-dimethyl-2,4-dioxo-3-azabicyclo[3.1.0]hexan-3-yl)methyl)pyrrolo[2,1-f][1,2,4]triazin-4-yl)-1H-indol-1-yl)methyl)piperidine-4-carbonitrile 2,2,2-trifluoroacetate]", "IC50": "< 500"},
      {"smiles": "Cc1cc(Cl)cc(-c2ncnn3cc(CN4C(=O)C5C(C4=O)C5(C)C)cc23)c1CC1CNC[C@H](C)O1", "note": "(stereo partly drawn) [Example 27, 3-((4-(5-chloro-3-methyl-2-(((6S)-6-methylmorpholin-2-yl)methyl)phenyl)pyrrolo[2,1-f][1,2,4]triazin-6-yl)methyl)-6,6-dimethyl-3-azabicyclo[3.1.0]hexane-2,4-dione dihydrochloride]", "IC50": "< 500"},
      {"smiles": "CC1(C)C2C(=O)N(Cc3cc4c(-c5cc(Cl)cc6ccn(CC7(F)CCCNC7)c56)ncnn4c3)C(=O)C21", "note": "(stereo not shown) [Example 29, 3-((4-(5-chloro-1-((3-fluoropiperidin-3-yl)methyl)-1H-indol-7-yl)pyrrolo[2,1-f][1,2,4]triazin-6-yl)methyl)-6,6-dimethyl-3-azabicyclo[3.1.0]hexane-2,4-dione hydrochloride]", "IC50": "< 500"},
      {"smiles": "CC1(C)C2C(=O)N(Cc3cc4c(-c5cc([N+](=O)[O-])cc6ccn(C[C@@H]7CNCCO7)c56)ncnn4c3)C(=O)C21", "note": "(stereo partly drawn) [Example 32, 6,6-dimethyl-3-((4-(1-(((S)-morpholin-2-yl)methyl)-5-nitro-1H-indol-7-yl)pyrrolo[2,1-f][1,2,4]triazin-6-yl)methyl)-3-azabicyclo[3.1.0]hexane-2,4-dione 2,2,2-trifluoroacetate]", "IC50": "< 500"},
      {"smiles": "CC1(C)C2C(=O)N(Cc3cc4c(-c5cc(C(F)(F)F)cc6ccn(C[C@@H]7CNCCO7)c56)ncnn4c3)C(=O)C21", "note": "(stereo partly drawn) [Example 35, 6,6-dimethyl-3-((4-(1-(((S)-morpholin-2-yl)methyl)-5-(trifluoromethyl)-1H-indol-7-yl)pyrrolo[2,1-f][1,2,4]triazin-6-yl)methyl)-3-azabicyclo[3.1.0]hexane-2,4-dione 2,2,2-trifluoroacetate]", "IC50": "< 500"},
      {"smiles": "O=C1CNC(=O)N1Cc1cc2c(-c3cc(Cl)cc4ccn(C[C@@H]5CNCCO5)c34)ncnn2c1", "note": "[Example 37, (S)-3-((4-(5-chloro-1-(morpholin-2-ylmethyl)-1H-indol-7-yl)pyrrolo[2,1-f][1,2,4]triazin-6-yl)methyl)imidazolidine-2,4-dione hydrochloride]", "IC50": "< 500"},
      {"smiles": "Cn1ccc(=O)n(Cc2cc3c(-c4cc(Cl)cc5ccn(C[C@@H]6CNCCO6)c45)ncnn3c2)c1=O", "note": "[Example 39, (S)-3-((4-(5-chloro-1-(morpholin-2-ylmethyl)-1H-indol-7-yl)pyrrolo[2,1-f][1,2,4]triazin-6-yl)methyl)-1-methylpyrimidine-2,4(1H,3H)-dione hydrochloride]", "IC50": "< 500"},
      {"smiles": "CC1(C)C2C(=O)N(Cc3cc4c(-c5cc(Cl)cc6cnn(C[C@@H]7CNCCO7)c56)ncnn4c3)C(=O)C21", "note": "(stereo partly drawn) [Example 44, 3-((4-(5-chloro-1-(((S)-morpholin-2-yl)methyl)-1H-indazol-7-yl)pyrrolo[2,1-f][1,2,4]triazin-6-yl)methyl)-6,6-dimethyl-3-azabicyclo[3.1.0]hexane-2,4-dione 2,2,2-trifluoroacetate]", "IC50": "< 500"},
      {"smiles": "CC1(C)C2C(=O)N(Cc3cc4c(-c5cc(Cl)cc6c(F)nn(C[C@@H]7CNCCO7)c56)ncnn4c3)C(=O)C21", "note": "(stereo partly drawn) [Example 45, 3-((4-(5-chloro-3-fluoro-1-(((S)-morpholin-2-yl)methyl)-1H-indazol-7-yl)pyrrolo[2,1-f][1,2,4]triazin-6-yl)methyl)-6,6-dimethyl-3-azabicyclo[3.1.0]hexane-2,4-dione hydrochloride]", "IC50": "< 500"},
      {"smiles": "Cc1cc(Cl)cc(-c2ncnn3cc(CN4C(=O)C5C(C4=O)C5(C)C)cc23)c1OCC1CCNCC1", "note": "(stereo not shown) [Example 48, 3-((4-(5-chloro-3-methyl-2-(piperidin-4-ylmethoxy)phenyl)pyrrolo[2,1-f][1,2,4]triazin-6-yl)methyl)-6,6-dimethyl-3-azabicyclo[3.1.0]hexane-2,4-dione hydrochloride]", "IC50": "< 500"},
      {"smiles": "Cc1cc(Cl)cc(-c2ncnn3cc(CN4C(=O)C5C(C4=O)C5(C)C)cc23)c1CC1CN[C@@H](C)CO1", "note": "(stereo partly drawn) [Example 49, 3-((4-(5-chloro-3-methyl-2-(((5S)-5-methylmorpholin-2-yl)methyl)phenyl)pyrrolo[2,1-f][1,2,4]triazin-6-yl)methyl)-6,6-dimethyl-3-azabicyclo[3.1.0]hexane-2,4-dione hydrochloride]", "IC50": "< 500"},
      {"smiles": "CC1(C)C2C(=O)N(Cc3cc4c(-c5cc(Cl)cc6c5N(C5CCNC5)CCO6)ncnn4c3)C(=O)C21", "note": "(stereo not shown) [Example 55, 3-((4-(7-chloro-4-(pyrrolidin-3-yl)-3,4-dihydro-2H-benzo[b][1,4]oxazin-5-yl)pyrrolo[2,1-f][1,2,4]triazin-6-yl)methyl)-6,6-dimethyl-3-azabicyclo[3.1.0]hexane-2,4-dione hydrochloride]", "IC50": "< 500"},
      {"smiles": "Cc1cc(Cl)cc(-c2ncnn3cc(CN4C(=O)C5C(C4=O)C5(C)C)cc23)c1OCC1(C)CCNCC1", "note": "(stereo not shown) [Example 58, 3-((4-(5-chloro-3-methyl-2-((4-methylpiperidin-4-yl)methoxy)phenyl)pyrrolo[2,1-f][1,2,4]triazin-6-yl)methyl)-6,6-dimethyl-3-azabicyclo[3.1.0]hexane-2,4-dione hydrochloride]", "IC50": "< 500"}
    ]}
  ]
}
